The values that follow come from patent US20050070594A1, “Use of angiotensin II receptor antagonists” (Boehringer Ingelheim International GmbH, priority 2003, published 2005).

Data set [1] has as its target T1, human PPARgamma-ligand binding domain (LBD) (Homo sapiens, UniProt P37231).
T1 construct: codes for the amino acids 205-505 of the human PPARgamma2 transcription factor; made in house; host or cells: E. coli BL21(DE3), vector pGEX-4T-1
T1 sequence (P37231 205-505): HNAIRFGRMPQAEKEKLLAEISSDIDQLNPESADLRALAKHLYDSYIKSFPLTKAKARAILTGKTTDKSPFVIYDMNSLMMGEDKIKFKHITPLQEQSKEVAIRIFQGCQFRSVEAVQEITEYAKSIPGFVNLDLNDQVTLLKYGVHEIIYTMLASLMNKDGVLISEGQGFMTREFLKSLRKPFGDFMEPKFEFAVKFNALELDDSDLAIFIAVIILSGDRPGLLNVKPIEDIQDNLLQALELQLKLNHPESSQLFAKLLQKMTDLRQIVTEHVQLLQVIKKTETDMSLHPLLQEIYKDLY
The experiment in a line: AlphaScreen: recruiting of biotinylated LXXLL peptide of cofactor CBP to GST-PPARgamma-LBD. Type of data set: biochemical. The note with it: concentrations of up to 50 μM. On the procedure:
Protein containing the human PPARgamma-ligand binding domain (LBD) is prepared as a GST fusion protein in E.coli and purified by affinity chromatography. […] The fusion protein is expressed in the E.coli strain BL21(DE3) recommended for pGEX vectors after induction with 0.2 mM IPTG for 4 hours at 25° C. The bacteria are pelleted after the induction and frozen in batches in PBS, pH 7.4. After opening up in a French Press, the dissolved GST-PPARgamma-LBD-fusion protein is purified using a GSTrap column (Pharmacia). Elution is carried out by the addition of 20 mM reduced glutathione.
The GST-PPARgamma-LBD-protein fractions are desalinated using a HiTrap desalting column (Pharmacia) and the protein concentration is determined using a standard assay.
The assay buffer consists of 25 mM Hepes pH7.4, 100 mM NaCl,1 mM DTT, 0.1% Tween-20, 0.1% BSA. […] The final DMSO concentration in the assay is 1% (v/v). A 1% DMSO solution is used as the background control (NSB). The measurement is done using a Packard fusion measuring device.
In general terms: Alpha assays give light when donor and acceptor beads are brought close together.

Data set [2] concerns the target T2, human PPARgamma-ligand binding domain (LBD) (Homo sapiens, UniProt P37231).
T2 sequence (P37231 205-505): T1 sequence (P37231 205-505)
T2 sequence (P19793 220-461 partner limits assumed): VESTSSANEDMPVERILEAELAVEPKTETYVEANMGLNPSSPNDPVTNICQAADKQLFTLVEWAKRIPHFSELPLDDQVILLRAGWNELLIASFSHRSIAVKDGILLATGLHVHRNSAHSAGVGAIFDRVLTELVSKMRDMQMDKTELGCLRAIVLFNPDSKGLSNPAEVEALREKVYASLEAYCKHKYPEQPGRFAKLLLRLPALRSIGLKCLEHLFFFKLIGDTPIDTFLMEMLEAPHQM
Put plainly: SPA assay: displacement of 3H-labelled rosiglitazone from GST-PPARgamma-LBD. The note with it: NSB 217, Bmax 911. On the procedure:
Protein containing the human PPARgamma-ligand binding domain (LBD) is prepared as a GST fusion protein in E.coli and purified by affinity chromatography. To do this, a DNA section which codes for the amino acids 205-505 of the human PPARgamma2 transcription factor (cf. Genbank entry U79012) is subcloned via the additionally introduced restriction cutting sites BamH I and Xho I into the expression vector pGEX-4T-1 (Amersham) and the sequence of the section is monitored. […] The bacteria are pelleted after the induction and frozen in batches in PBS, pH 7.4. After opening up in a French Press, the dissolved GST-PPARgamma-LBD-fusion protein is purified using a GSTrap column (Pharmacia). Elution is carried out by the addition of 20 mM reduced glutathione. The GST-PPARgamma-LBD-protein fractions are desalinated using a HiTrap desalting column (Pharmacia) and the protein concentration is determined using a standard assay. Protein containing the human RXRalpha ligand binding domain (LBD) is prepared as a His tag fusion protein in E.coli and purified by affinity chromatography. To do this a DNA section which codes for the amino acids 220-461 of the human RXRalpha transcription factor (cf. Genbank entry NM_002957, nt 729-1457) is subcloned via the additionally introduced restriction cutting sites BamH I and Not I into the expression vector pET28c (Novagen) and the sequence of the section is monitored. […] The bacteria are pelleted after the expression and frozen in batches in PBS, pH 7.4. After opening up in a French Press, the dissolved His-RXRalpha-LBD-fusion protein is purified using a HiTrap chelating column (Pharmacia). Elution is carried out using a 500 mM imidazole step. The His-RXRalpha-LBD protein fractions are desalinated using a HiTrap desalting column (Pharmacia) and the protein concentration is determined using a standard assay. A description of the SPA assay format can be found in Mukheriee R et al., J Steroid Biochem Mol Biol (2002) 81:217-225.

Data set [3] deals with T3, ligand binding domain of the human PPARgamma2 transcription factor (Gal4 DNA binding domain fusion) (Homo sapiens, UniProt P37231).
T3 construct: codes for amino acids 205-505 of the human PPARgamma2 transcription factor; expressed in transfected cells
T3 sequence (P37231 205-505): T1 sequence (P37231 205-505)
Put plainly: Luciferase activity in stably transformed PPARgamma reporter cell line (CHO-K1 clone 11). Type of data set: cell-based. Conditions: 24 hours. How it is done:
The resulting plasmid pFA-CMV/hPPARgamma2-LBD codes N-terminally of the PPARgamma-LBD in the same reading frame for a Gal4 DNA binding domain. In addition the plasmid codes for a neomycin resistance.
The cell line CHO-K1 (ATCC CCL-61) is cotransfected with the plasmids pFA-CMV/hPPARgamma2-LBD and pFR-Luc (Stratagene). pFR-Luc codes for the luciferase gene under the control of a five-times repeated yeast Gal4 binding site. The transfection is carried out with lipofectamine2000 in accordance with the manufacturer's instructions.
After six days' cultivation the cells are passaged and kept in culture for another 10 days. The resulting neomycin-resistant colonies are picked out under the microscope and transferred into 96 well-dishes and cultured.
The test substances are brought to 100 times the desired concentration with a suitable solvent, e.g. DMSO, and diluted 1:100 with the medium placed in the cell culture plate. The solvent used, e.g. DMSO, is used as the background control in the same concentration.
Luminescence is measured after a five minute wait using a Packard TopCount NXT. The luciferase activity is obtained by integrating the relative luciferase units (RLU) of the first ten seconds after the start of measurement.

Data set [4] can be described thus: Dissolution of active substances from tablets. Type of data set: physicochemical. The note with it: 900 ml 0.1 M phosphate buffer pH 7.5, 75 rpm.
The conditions of data set [5]: animal model; cited from earlier work.
Data set [6] deals with Adipose Protein 2 (aP2) expression. Put plainly: Stimulation of aP2 expression in 3T3-L1 cells (real time PCR). The note with it: 10 μmol/L. Type of data set: cell-based, mouse. The text has this:
3T3-L1 mouse preadipocytes are cultivated in DMEM (Dulbecco's modified eagle medium) with 10% foetal calf serum (FBS). PC12W cells are cultivated in DMEM with 5% FBS and 10% equine serum. In both cases the media contain 1% penicillin/streptomycin.
The differentiation of adipocytes is induced 2-3 days after cell confluence by adding a differentiating solution. This contains • 1 μmol/L of dexamethasone, • 0.5 mmol/L of 3-isobutyl-1-methylxanthine, • 1.67 μmol/L of insulin, and • 10% FBS.
Then the cells are stimulated for another 48 hours before finally being analysed (day 4).
RNA isolation, reverse transcription and quantification of gene expression are carried out using an ABI 7000 sequence detection system-for real time PCR (described in Janke et al, Diabetes 51:1699-707, 2002). The endogenous control used for the real time PCR consists of the household genes 18S rRNA and hypoxanthine guanine phosphoribosyl transferase (hprt).
In general terms: Quantitative PCR measures a nucleic acid by following its amplification.

Counter-ions that a name gives are not always drawn.

Regarding `CCCCc1nc(Cl)c(CO)n1Cc1ccc(-c2ccccc2-c2nn[nH]n2)cc1` [losartan], the “direct activation of the PPARgamma-LBD / recruiting of the LXXLL peptide” value in data set [1] is “does not result in any direct activation”. Also, the “SPA signal, bound 3H-rosiglitazone (MW)” value amounted to 611 in data set [2] (1.00E−04 M test substance); 787 in data set [2] (1.00E−05 M test substance); 901 in data set [2] (1.00E−06 M test substance); 915 in data set [2] (1.00E−07 M test substance); 784 in data set [2] (3.00E−05 M test substance); 814 in data set [2] (3.00E−06 M test substance). Besides, in data set [2] (3.00E−07 M test substance), the “SPA signal, bound 3H-rosiglitazone (MW)” value was 835. Besides, the “luciferase activity (MW)” value was 11322 RLU in data set [3] (1.00E−04 M); 709 RLU in data set [3] (1.00E−05 M); 589 RLU in data set [3] (1.00E−06 M); 3271 RLU in data set [3] (3.00E−05 M); 672 RLU in data set [3] (3.00E−06 M); 874 RLU in data set [3] (3.00E−07 M).

As to `CCCc1nc2c(C)cc(-c3nc4ccccc4n3C)cc2n1Cc1ccc(-c2ccccc2C(=O)O)cc1` [telmisartan sodium salt], the figures for the “dissolved after 30 minutes” value in data set [4] (first batch), in data set [4] (second batch) and in data set [4] (third batch) were 92±1.5%, 96±1.8% and 100±1.0%, respectively.

As for `CCCCC1=NC2(CCCC2)C(=O)N1Cc1ccc(-c2ccccc2-c2nnn[nH]2)cc1` [irbesartan], in data set [1], the “direct activation of the PPARgamma-LBD / recruiting of the LXXLL peptide” value is listed as “does not result in any direct activation”. The “SPA signal, bound 3H-rosiglitazone (MW)” value came out at 510 in data set [2] (1.00E−04 M test substance); 723 in data set [2] (1.00E−05 M test substance); 815 in data set [2] (1.00E−06 M test substance); 913 in data set [2] (1.00E−07 M test substance); 648 in data set [2] (3.00E−05 M test substance); 779 in data set [2] (3.00E−06 M test substance). In addition, the “SPA signal, bound 3H-rosiglitazone (MW)” value in data set [2] (3.00E−07 M test substance) is listed as 810. Moreover, the “luciferase activity (MW)” value in data set [3] (1.00E−04 M) stood at 29600 RLU; in data set [3] (1.00E−05 M) it was 3292 RLU; in data set [3] (1.00E−06 M), 657 RLU; in data set [3] (3.00E−05 M), 22133 RLU; in data set [3] (3.00E−06 M), 1028 RLU; in data set [3] (3.00E−07 M) it was 491 RLU. The insulin sensitivity result in data set [5] is “Improvement to the insulin sensitivity”.

As for `CCc1ccc(CCOc2ccc(CC3SC(=O)NC3=O)cc2)nc1` (stereo not drawn) [pioglitazone], in data set [6], the “stimulation of aP2 expression, factor” value is 4.5±1.
